Laboratory results from patent US20160296499A1, “Spiroindoline Antiparasitic Derivatives” (ZOETIS SERVICES LLC, priority 2013, published 2016).
Read-outs that look alike come from different tables or passages of the source.

Tests used:
Haemonchus contortus L3 = experiment: Haemonchus contortus, Larvae Stage 3 (HcL3) In Vitro Assay; conditions: Haemonchus contortus
[1] = target: T1, bovine vesicular acetylcholine transporter (VAChT) (Bos taurus, UniProt E1BK36); experiment: Radioligand Binding Assay; conditions: Bovine binding Ki, CHO-K1 membranes with recombinant bovine VAChT, [3H]Compound X6 0.3 nM
T1 sequence (E1BK36 1-524): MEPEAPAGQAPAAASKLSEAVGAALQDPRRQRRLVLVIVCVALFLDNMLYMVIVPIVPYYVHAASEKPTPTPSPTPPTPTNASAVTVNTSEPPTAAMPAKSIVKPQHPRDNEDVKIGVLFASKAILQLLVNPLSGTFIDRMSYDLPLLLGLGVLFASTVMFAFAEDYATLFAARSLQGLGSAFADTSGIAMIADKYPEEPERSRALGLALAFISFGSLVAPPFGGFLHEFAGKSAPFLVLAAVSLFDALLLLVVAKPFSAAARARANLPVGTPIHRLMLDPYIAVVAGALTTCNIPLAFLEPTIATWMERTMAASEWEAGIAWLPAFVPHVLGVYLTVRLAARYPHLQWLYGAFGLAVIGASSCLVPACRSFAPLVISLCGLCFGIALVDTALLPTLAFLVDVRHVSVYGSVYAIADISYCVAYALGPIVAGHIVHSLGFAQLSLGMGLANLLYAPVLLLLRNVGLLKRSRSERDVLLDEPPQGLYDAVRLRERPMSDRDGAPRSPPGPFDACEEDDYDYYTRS

[2] = tested on: Dirofilaria immitis microfilariae; experiment: Dirofilaria immitis, Microfilariae (DiMF) In Vitro Assay; conditions: Dirofilaria immitis
[3] = 96 h, read-out: HcL3 MEC, Minimal Effective Concentration whereby worm motility is inhibited by approximately 70%, 37° C., tested 0.001-100 μM
[4] = 72 h, read-out: Di MF, MEC, decrease in microfilariae motility by visual assessment, curve starting at 100 μM
[5] = 96 hours, 37° C., read-out: HcL3 MEC

O=C(NCc1ccnc(Cl)c1)N1CC2(CCN(C/C=C/c3ccc(Cl)cc3)CC2)c2cc(-n3ccccc3=O)ccc21 [Example 74, (E)-1′-(3-(4-chlorophenyl)allyl)-N-((2-chloropyridin-4-yl)methyl)-5-(2-oxopyridin-1(2H)-yl)spiro[indoline-3,4′-piperidine]-1-carboxamide]
minimal effective concentration (Haemonchus contortus L3; [3]): 100 µM
Ki [1]: 11600 nM
minimal effective concentration [2, 4]: 2.4 µM

O=C(NCc1ccnc(F)c1)N1CC2(CCN(C/C=C/c3ccc(Cl)cc3)CC2)c2cc(-n3ccccc3=O)ccc21 [Example 75, (E)-1′-(3-(4-chlorophenyl)allyl)-N-((2-fluoropyridin-4-yl)methyl)-5-(2-oxopyridin-1(2H)-yl)spiro[indoline-3,4′-piperidine]-1-carboxamide]
minimal effective concentration (Haemonchus contortus L3; [3]): 100 µM
Ki [1]: 11600 nM
minimal effective concentration [2, 4]: 4.4 µM

O=C(NCc1ccnc(Cl)c1)N1CC2(CCN(C/C=C/c3ccc(Cl)cc3)CC2)c2cc(N3CCCC3)ccc21 [Example 76, (E)-1′-(3-(4-chlorophenyl)allyl)-N-((2-chloropyridin-4-yl)methyl)-5-(pyrrolidin-1-yl)spiro[indoline-3,4′-piperidine]-1-carboxamide]
minimal effective concentration (Haemonchus contortus L3; [3]): 100 µM
Ki [1]: 1420 nM
minimal effective concentration [2, 4]: 1.8 µM

O=C(NCc1ccnc(F)c1)N1CC2(CCN(C/C=C/c3ccc(Cl)cc3)CC2)c2cc(OC(F)(F)F)ccc21 [Example 77, (E)-1′-(3-(4-chlorophenyl)allyl)-N-((2-fluoropyridin-4-yl)methyl)-5-(trifluoromethoxy)spiro[indoline-3,4′-piperidine]-1-carboxamide]
minimal effective concentration (Haemonchus contortus L3; [5]): 5.7 µM
Ki [1]: 870 nM
minimal effective concentration ([2]; 72 hours, read-out: Di MF): 3.3 µM

O=C(NCc1ccnc(Cl)c1)N1CC2(CCN(C/C=C/c3ccc(Cl)cc3)CC2)c2cc(S(=O)(=O)C(F)(F)F)ccc21 [Example 78, (E)-1′-(3-(4-chlorophenyl)allyl)-N-((2-chloropyridin-4-yl)methyl)-5-(trifluoromethylsulfonyl)spiro[indoline-3,4′-piperidine]-1-carboxamide]
minimal effective concentration (Haemonchus contortus L3; [3]): 100 µM
Ki [1]: 1290 nM
minimal effective concentration [2, 4]: 1 µM

CS(=O)(=O)c1ccc2c(c1)C1(CCN(C/C=C/c3ccc(Cl)cc3)CC1)CN2C(=O)NCc1ccnc(Cl)c1 [Example 79, (E)-1′-(3-(4-chlorophenyl)allyl)-N-((2-chloropyridin-4-yl)methyl)-5-(methylsulfonyl)spiro[indoline-3,4′-piperidine]-1-carboxamide]
minimal effective concentration (Haemonchus contortus L3; [3]): 100 µM
Ki [1]: 11300 nM
minimal effective concentration [2, 4]: 10 µM

O=C(NCc1ccnc(Cl)c1)N1CC2(CCN(C/C=C/c3ccc(Cl)cc3)CC2)c2cc(SC(F)(F)F)ccc21 [Example 80, (E)-1′-(3-(4-chlorophenyl)allyl)-N-((2-chloropyridin-4-yl)methyl)-5-(trifluoromethylthio)spiro[indoline-3,4′-piperidine]-1-carboxamide]
minimal effective concentration (Haemonchus contortus L3; [3]): 100 µM
Ki [1]: 191 nM
minimal effective concentration [2, 4]: 10 µM

O=C(NCc1ccnc(Cl)c1)N1CC2(CCN(C/C=C/c3ccc(Cl)cc3)CC2)c2cc(-c3nccs3)ccc21 [Example 81, (E)-1′-(3-(4-chlorophenyl)allyl)-N-((2-chloropyridin-4-yl)methyl)-5-(thiazol-2-yl)spiro[indoline-3,4′-piperidine]-1-carboxamide]
minimal effective concentration (Haemonchus contortus L3; [3]): 100 µM
Ki [1]: 308 nM
minimal effective concentration [2, 4]: 7.6 µM

O=C(NCc1ccnc(F)c1)N1CC2(CCN(C/C=C/c3ccc(Cl)cc3)CC2)c2cc(C(F)(F)F)ccc21 [Example 82, (E)-1′-(3-(4-chlorophenyl)allyl)-N-((2-fluoropyridin-4-yl)methyl)-5-(trifluoromethyl)spiro[indoline-3,4′-piperidine]-1-carboxamide]
minimal effective concentration (Haemonchus contortus L3; [3]): 7.6 µM
Ki [1]: 572 nM
minimal effective concentration [2, 4]: 4.4 µM

O=C(NCc1ccnc(F)c1)N1CC2(CCN(C/C=C/c3ccc(Cl)cc3)CC2)c2cc(-c3cc[nH]c(=O)c3)ccc21 [Example 83, (E)-1′-(3-(4-chlorophenyl)allyl)-N-((2-fluoropyridin-4-yl)methyl)-5-(2-oxo-1,2-dihydropyridin-4-yl)spiro[indoline-3,4′-piperidine]-1-carboxamide]
minimal effective concentration (Haemonchus contortus L3; [3]): 100 µM
Ki [1]: 11200 nM
minimal effective concentration [2, 4]: 6.9 µM

O=C(NCc1ccnc(F)c1)N1CC2(CCN(C/C=C/c3ccc(Cl)cc3)CC2)c2cc(C3CC3)ccc21 [Example 84, (E)-1′-(3-(4-chlorophenyl)allyl)-5-cyclopropyl-N-((2-fluoropyridin-4-yl)methyl)spiro[indoline-3,4′-piperidine]-1-carboxamide]
minimal effective concentration (Haemonchus contortus L3; [5]): 100 µM
Ki [1]: 680 nM
minimal effective concentration ([2]; 72 hours, read-out: Di MF): 3.3 µM

O=C(NCc1cnc(Cl)s1)N1CC2(CCN(C/C=C/c3ccc(Cl)cc3)CC2)c2cc(C(F)(F)F)ccc21 [Example 85, (E)-1′-(3-(4-chlorophenyl)allyl)-N-((2-chlorothiazol-5-yl)methyl)-5-(trifluoromethyl)spiro[indoline-3,4′-piperidine]-1-carboxamide]
minimal effective concentration (Haemonchus contortus L3; [5]): 18.2 µM
Ki [1]: 226 nM
minimal effective concentration ([2]; 72 hours, read-out: Di MF): 10 µM

N#Cc1cc2c(cn1)N(C(=O)NCc1ccnc(Cl)c1)CC21CCN(C/C=C/c2ccc(Cl)cc2)CC1 [Example 86, (E)-1-(3-(4-chlorophenyl)allyl)-N-((2-chloropyridin-4-yl)methyl)-5′-cyanospiro[piperidine-4,3′-pyrrolo[2,3-c]pyridine]-1′(2′H)-carboxamide]
minimal effective concentration (Haemonchus contortus L3; [3]): 3.3 µM
Ki [1]: 31.7 nM
minimal effective concentration [2, 4]: 5.7 µM

N#Cc1ccc2c(n1)C1(CCN(C/C=C/c3ccc(Cl)cc3)CC1)CN2C(=O)NCc1ccnc(Cl)c1 [Example 87, (E)-1-(3-(4-chlorophenyl)allyl)-N-((2-chloropyridin-4-yl)methyl)-5′-cyanospiro[piperidine-4,3′-pyrrolo[3,2-b]pyridine]-1′(2′H)-carboxamide]
minimal effective concentration (Haemonchus contortus L3; [3]): 18.2 µM
Ki [1]: 38.1 nM
minimal effective concentration [2, 4]: 5.7 µM

O=C(NCc1ccnc(Cl)c1)N1CC2(CCN(C/C=C/c3ccc(Cl)cc3)CC2)c2c(OC(F)(F)F)cccc21 [Example 88, (E)-1′-(3-(4-chlorophenyl)allyl)-N-((2-chloropyridin-4-yl)methyl)-4-(trifluoromethoxy)spiro[indoline-3,4′-piperidine]-1-carboxamide]
minimal effective concentration (Haemonchus contortus L3; [3]): 100 µM
Ki [1]: 1130 nM
minimal effective concentration [2, 4]: 3.3 µM

O=C(NCc1ccnc(Cl)c1)N1CC2(CCN(C/C=C/c3ccc(Cl)cc3)CC2)c2c(SC(F)(F)F)cccc21 [Example 89, (E)-1′-(3-(4-chlorophenyl)allyl)-N-((2-chloropyridin-4-yl)methyl)-4-(trifluoromethylthio)spiro[indoline-3,4′-piperidine]-1-carboxamide]
minimal effective concentration (Haemonchus contortus L3; [3]): 100 µM
Ki [1]: 774 nM
minimal effective concentration [2, 4]: 6.9 µM

O=C(NCc1ccnc(F)c1)N1CC2(CCN(C/C=C/c3ccc(Cl)cc3)CC2)c2c(F)cc(C(F)(F)F)cc21 [Example 90, (E)-1′-(3-(4-chlorophenyl)allyl)-4-fluoro-N-((2-fluoropyridin-4-yl)methyl)-6-(trifluoromethyl)spiro[indoline-3,4′-piperidine]-1-carboxamide]
minimal effective concentration (Haemonchus contortus L3; [3]): 1.8 µM
Ki [1]: 256 nM
minimal effective concentration [2, 4]: 10 µM

O=C(NCc1ccnc(F)c1)N1CC2(CCN(C/C=C/c3ccc(Cl)cc3)CC2)c2c(-c3ccccc3)cccc21 [Example 91, (E)-1′-(3-(4-chlorophenyl)allyl)-N-((2-fluoropyridin-4-yl)methyl)-4-phenylspiro[indoline-3,4′-piperidine]-1-carboxamide]
minimal effective concentration (Haemonchus contortus L3; [3]): 100 µM
Ki [1]: 295 nM
minimal effective concentration [2, 4]: 3.3 µM

O=C(NCc1ccnc(F)c1)N1CC2(CCN(C/C=C/c3ccc(Cl)cc3)CC2)c2c1cccc2C(F)(F)F [Example 92, (E)-1′-(3-(4-chlorophenyl)allyl)-N-((2-fluoropyridin-4-yl)methyl)-4-(trifluoromethyl)spiro[indoline-3,4′-piperidine]-1-carboxamide]
minimal effective concentration (Haemonchus contortus L3; [3]): 5 µM
Ki [1]: 796 nM
minimal effective concentration [2, 4]: 5 µM

O=C(NCc1ccnc(F)c1)N1CC2(CCN(C/C=C/c3ccc(Cl)cc3)CC2)c2c(C3CC3)cccc21 [Example 93, (E)-1′-(3-(4-chlorophenyl)allyl)-4-cyclopropyl-N-((2-fluoropyridin-4-yl)methyl)spiro[indoline-3,4′-piperidine]-1-carboxamide]
minimal effective concentration (Haemonchus contortus L3; [3]): 100 µM
Ki [1]: 958 nM
minimal effective concentration [2, 4]: 5.7 µM

O=C(NCc1ccnc(F)c1)N1CC2(CCN(C/C=C/c3ccc(Cl)cc3)CC2)c2c(OC(F)(F)F)cccc21 [Example 94, (E)-1′-(3-(4-chlorophenyl)allyl)-N-((2-fluoropyridin-4-yl)methyl)-4-(trifluoromethoxy)spiro[indoline-3,4′-piperidine]-1-carboxamide]
minimal effective concentration (Haemonchus contortus L3; [3]): 100 µM
Ki [1]: 3930 nM
minimal effective concentration [2, 4]: 3.3 µM
